The test system of series [1] is serum ALT (alanine aminotransferase). The series can be described thus: Effect of inhibiting hepatic disorder induced by carbon tetrachloride: serum ALT. The format is in vivo, male ICR mice. Particulars: CCl4 100 μl/kg i.p., compound 50 mg/kg per day oral, 3 days. From the text:
First, the effects of allylthiopyridazine derivative of formula (I) for prevention and treatment of hepatic diseases was examined using carbon tetrachloride model and acetaminophen model.
Carbon tetrachloride model [see, Philippe letteron et al., Biochemical Pharmacology, 39, 12, 2027-2034, 1990] is most frequently used as an experimental model of hepatic disorder and has been established on the basis of the fact that carbon tetrachloride is converted into trichloromethyl free radical (CCl3 .), a highly toxic metabolite, by the action of cytochrome P-450 in body. This metabolite strongly binds with thiol group of liver microsomal membrane protein to produce a lipid radical, which is then converted into peroxy radical in the presence of oxygen, thereby stimulating the peroxidation reaction of membrane lipid. That is, carbon tetrachloride inhibits protein biosynthesis in liver, increases blood ALT (alanine aminotransferase) and causes centrilobular necrosis of liver cells.
(§1) In the present invention, the inhibiting effect of the compound of formula (I) on hepatic disorder, induced by carbon tetrachloride and acetaminophene, was determined after oral administration of the novel compound according to the present invention to mouse as the experimental animal for 3 days. The degree of liver damage in respective experimental animal was determined by measuring ALT and LDH levels in blood [see, Biol. Pharm. Bull., 20, 4, 381-385, 1997; Toxicology and Applied Pharmacology, 95, 1-11, 1988], and further by removing the liver, staining (×100) the liver with hematoxylin and eosin and then observing with microscope to examine the degree of hepatocyte necrosis.
Effect of inhibiting hepatic disorder induced by carbon tetrachloride
The liver protective effect of the compound according to the present invention was examined according to the known method [see, Philippe letteron et al., Biochemical Pharmacology, 39, 12, 2027-2034, 1990] as specifically described below.
The compound according to the present invention was suspended in corn oil and the resulting suspension was administered in an amount of 1.0 ml/kg. Each group was composed of 3 to 10 male ICR mice (5-6 weeks) and the test compound was orally administered for 3 days in the dose of 50 mg/kg per day. After the test compound was administered, carbon tetrachloride was intraperitoneally injected in an amount of 100 μl/kg. In this experiment, silymarin was used as the comparative compound. After 24 hours from administration of carbon tetrachloride, blood was taken from the test animal by cardiac perforation and ALT value in serum was determined. The result obtained is described in the following Table 2 (in which ALT value is represented by mean±SE). The ALT unit in serum was determined by centrifuging blood to separate serum as the supernatant, and then the separated serum were subjected to Reitman-Frankel method by means of a commercially available kit (BC101-O,P, Youngdong Pharm.). That is, DL-alanine and α-ketoglutarate were used as the substrate solution to which 2,4-dinitrophenylhydrazine was added to produce hydrazone. Then, sodium hydroxide was added to hydrazone to colorize and then the absorbance was measured at 505 nm.

Series [2] concerns serum LDH (lactate dehydrogenase). The series can be described thus: Effect of inhibiting hepatic disorder induced by acetaminophen (APAP): serum LDH. The format is in vivo, male ICR mice. Particulars: APAP 0.5 g/kg oral, compound 50 mg/kg per day oral, 3 days.
Description: In addition, the liver protective effects of the compound of the present invention can also be confirmed by acetaminophen model [see, Wang et al., Toxicology and applied Pharmacology, 136, 146-154, 1996]. Acetaminophen is rapidly metabolized by CYP2E1 to cause hepatic toxicity, which results in structural and functional change in liver cellular membrane, causing necrosis in hepatic lobule, an increase in blood ALT and LDH (lactate dehydrogenase) levels.
as §1
Effect of inhibiting hepatic disorder induced by acetaminophen (APAP)
The liver protective effect of the compound according to the present invention was examined according to the known method [see, Wang et al., Toxicology and applied Pharmacology, 136, 146-154, 1996] as specifically described below.
The compound according to the present invention was suspended in corn oil and the resulting suspension was administered in an amount of 1.0 ml/kg. Each group was composed of 3 to 10 male ICR mice (5-6 weeks) and the test compound was orally administered for 3 days in the dose of 50 mg/kg per day. After 2 hours from the last administration of the test compound, acetaminophen was orally administered in an amount of 0.5 g/kg. In this experiment, silymarin was used as the comparative compound. After 22 hours from the administration of acetaminphen, blood was taken from the individual test animal and ALT and LDH values in serum were determined. The results as obtained are described in the following Tables 4 and 5 (in which ALT and LDH values are represented by mean±SE). In addition, liver was removed from the test animals and then observed according to the same manner as Experiment 3 to evaluate the degree of hepatocyte necrosis.

For series [3], the system named is ICR male mouse. The series can be described thus: Acute toxicity test, single oral administration. Particulars: 14 days. The class given is in vivo. The procedure: (§2) Moreover, as a result of an acute toxicity test using mouse to evaluate the general toxicity of the compound according to the present invention, when the compound is single administered via oral route, the LD50 value of the respective compound is 3.5 g/kg or more. Therefore, the compound of the present invention is determined as being very safe.
(§3) The acute toxicity test was carried out to quantitatively and qualitatively examine the toxicity which occurs within a short period of time after a single administration of the test compound to the experimental animal.
(§4) In this experiment, the acute toxicity test was conducted using 5-6 weeks ICR male mouse obtained from Korea Experimental Animal Center. From 6 p.m., the day before administration of the test compound, to 9 a.m. the day on which the test compound is administered, mouse was fasted. The test compound was ground and suspended in corn oil and then administered in the dose of 1000 to 6000 mg/kg to the experimental animal. For each dose, 6 animals were used. The test compound was prepared and used on that day, and was single administered via oral route by means of a needle. After the compound of Example 4, as typical example of the compound according to the present invention was administered, the survived and died animals were observed during 14 days.

The nature of series [4]: Acute toxicity test, single oral administration. The format is in vivo. The note with it: in vivo, mouse, Litchfield-Wilcoxon method, 95% confidence interval 3.26-4.78 g/kg (Example 4). As for the experimental part: as §2, §3, §4

For the compound `C=CCSc1ccc(OC)nn1` [Example 4, 3-methoxy-6-allylthiopyridazine], in series [1], the “Inhibiting rate (serum ALT)” value stood at 57%. The “Serum ALT value” in series [1] (mean±SE) is 3966 ± 1116 KA unit/l. Further, the “Inhibiting rate (serum LDH)” value in series [2] was found to be 99.8%. For the same compound, the “Serum LDH value” in series [2] (mean±SE) was 703 ± 83 KA unit/l. The “D/T (number of died animals / number of test animals)” value is 0/6 in series [3] (1000 mg/kg); 0/6 in series [3] (2000 mg/kg); 1/6 in series [3] (3000 mg/kg); 3/6 in series [3] (4000 mg/kg); 4/6 in series [3] (5000 mg/kg); 6/6 in series [3] (6000 mg/kg). Further, in series [4], the LD50 (in general, the dose at which mortality reaches 50%) at 336 h was determined as 3950 mg/kg.

The record behind these values is patent US5942511A, “Allylthiopyridazine derivatives and process for preparing the same” (Kwon; Soon Kyoung, priority 1998, dated 1999).
